Assay results from publication PMC11945486, “TAS1R2/TAS1R3 Single-Nucleotide Polymorphisms Affect Sweet Taste Receptor Activation by Sweeteners: The SWEET Project” (Nutrients, 2025).
Read-outs that look alike come from different tables or passages of the source. Each block holds one molecule with its values, some of them ahead of it. No end group written: not given here.

Target: T1, human TAS1R2-WT/TAS1R3-M110T (Homo sapiens, UniProt Q7RTX0+Q8TE23, M110T)
T1 construct: expressed in transfected cells; host or cells: HEK293T stably expressing Gα16gust44
T1 sequence (Q8TE23 20-839): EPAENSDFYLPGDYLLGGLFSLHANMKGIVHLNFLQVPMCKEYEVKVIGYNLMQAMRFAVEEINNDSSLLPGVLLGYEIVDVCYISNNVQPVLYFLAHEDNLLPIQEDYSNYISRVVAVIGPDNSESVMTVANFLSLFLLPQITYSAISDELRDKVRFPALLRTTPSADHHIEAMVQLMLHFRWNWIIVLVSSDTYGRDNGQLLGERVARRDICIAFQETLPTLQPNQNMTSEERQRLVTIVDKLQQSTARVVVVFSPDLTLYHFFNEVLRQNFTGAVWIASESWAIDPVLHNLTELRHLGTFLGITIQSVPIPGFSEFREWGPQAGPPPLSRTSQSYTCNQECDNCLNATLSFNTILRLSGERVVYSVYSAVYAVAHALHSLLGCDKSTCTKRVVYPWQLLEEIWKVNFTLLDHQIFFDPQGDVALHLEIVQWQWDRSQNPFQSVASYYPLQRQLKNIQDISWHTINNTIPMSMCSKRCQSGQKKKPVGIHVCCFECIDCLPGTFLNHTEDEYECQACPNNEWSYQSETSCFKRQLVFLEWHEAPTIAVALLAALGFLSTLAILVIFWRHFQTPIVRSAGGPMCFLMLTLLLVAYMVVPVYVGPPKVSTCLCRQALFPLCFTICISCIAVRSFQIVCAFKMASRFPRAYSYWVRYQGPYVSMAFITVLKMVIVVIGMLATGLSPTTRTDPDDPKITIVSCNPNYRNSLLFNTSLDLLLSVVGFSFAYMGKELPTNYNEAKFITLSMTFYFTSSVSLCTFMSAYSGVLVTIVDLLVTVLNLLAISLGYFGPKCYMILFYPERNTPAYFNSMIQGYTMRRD
T1 sequence (Q7RTX0 21-852 M110T): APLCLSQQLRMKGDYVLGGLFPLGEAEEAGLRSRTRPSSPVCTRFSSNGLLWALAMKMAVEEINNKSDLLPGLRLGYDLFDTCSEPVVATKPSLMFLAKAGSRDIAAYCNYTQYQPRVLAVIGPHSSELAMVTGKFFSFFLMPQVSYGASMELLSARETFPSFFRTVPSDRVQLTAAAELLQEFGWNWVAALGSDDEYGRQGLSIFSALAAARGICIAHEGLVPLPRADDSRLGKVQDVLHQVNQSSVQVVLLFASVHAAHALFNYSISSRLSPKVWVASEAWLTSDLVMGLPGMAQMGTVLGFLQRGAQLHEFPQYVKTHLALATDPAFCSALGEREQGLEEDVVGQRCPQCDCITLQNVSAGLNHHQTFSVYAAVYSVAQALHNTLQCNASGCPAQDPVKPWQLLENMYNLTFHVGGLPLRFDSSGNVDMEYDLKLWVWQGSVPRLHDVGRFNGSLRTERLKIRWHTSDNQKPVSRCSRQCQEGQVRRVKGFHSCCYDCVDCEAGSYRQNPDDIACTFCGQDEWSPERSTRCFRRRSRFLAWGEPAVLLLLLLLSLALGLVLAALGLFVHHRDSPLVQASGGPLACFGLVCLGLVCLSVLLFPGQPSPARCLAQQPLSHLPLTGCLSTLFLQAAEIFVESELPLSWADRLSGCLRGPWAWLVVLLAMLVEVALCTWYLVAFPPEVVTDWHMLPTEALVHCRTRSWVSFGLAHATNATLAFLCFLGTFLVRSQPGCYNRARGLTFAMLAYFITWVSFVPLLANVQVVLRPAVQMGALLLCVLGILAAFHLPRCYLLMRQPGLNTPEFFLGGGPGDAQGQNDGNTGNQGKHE
Experiment: Calcium mobilisation assay, TAS1R2-WT with TAS1R3 variant M110T
Type: cell-based
Details: for Max ΔF/F0: maximal signal amplitude
From the text: The coding sequences for TAS1R2 and TAS1R3 were commercially synthesised, and the human codon was optimised for expression in human cells. The coding sequences of human TAS1R2 and TAS1R3 were subcloned and inserted into the mammalian expression vectors pcDNA6/myc-HisA and pcDNA4/myc-HisA (Invitrogen; Thermo Fisher Scientific; Illkirch, France) between the EcoRI and NotI restriction sites, generating the plasmids pcDNA6-TAS1R2 and pcDNA4-TAS1R3, respectively. To increase protein expression in mammalian cells, an upstream start codon was used, which was a sequence called MAX, corresponding to the QBI SP163 element also described in pcDNA4-HisMax (Invitrogen; Thermo Fisher Scientific; Illkirch, France). To measure the expression level of the receptor by immunohistochemistry, we used the FLAG sequence ([…]) in the C-terminal position, which encodes the FLAG tag epitope. SNP variants of TAS1R2 and TAS1R3 were constructed based on […], respectively, using site-directed mutagenesis (Genewiz; Leipzig, Germany).
The HEK293T cells were kindly provided by Jay P. Slack (Givaudan Flavors Corporation; Cincinnati, OH, USA). HEK293T cells stably transfected with Gα16gust44 [43, 67] were seeded in poly-D-lysine-coated clear-bottom black 96-well plates (0.35 × 10^5 cells/well) in high-glucose DMEM supplemented with 2 mM GlutaMAX, 10% dialysed foetal bovine serum with penicillin/streptomycin and G418 (400 μg/mL) at 37 °C and 6.3% CO2 in a humidified atmosphere as previously reported. […] As a negative control, HEK293T cells were mock-transfected with the empty expression vector. After a further 24 h of incubation, the HEK293T cells were washed with C1 buffer (130 mM NaCl, 5 mM KCl, 10 mM HEPES pH 7.4 and 2 mM CaCl2). The 96-well plates containing the cells were then stimulated with sweet-tasting compounds. […] Different concentration ranges were tested depending on the sweet compound injected. The Ca^2+ changes were expressed as fractional changes in fluorescent light intensity: ΔF/F = (F − F0)/F0, where F was the fluorescent light intensity at each point, and F0 was the value of emitted fluorescent light prior to stimulus application. To calculate dose–response relationships, the changes in fluorescence upon stimulus application were averaged, mock-subtracted and baseline-corrected. The dose–response data obtained were adjusted using a 4-parameter logistic equation. The half-maximal effective concentrations (EC50 values) and maximal signal amplitudes were calculated using SigmaPlot software (version 15.0) (Systat Software; San Jose, CA, USA).
For in vitro calcium mobilisation assay performed on hTAS1R2-SNPs, hTAS1R3-SNPs and mTAS1R3-I60T, 6 to 7 concentrations were tested for each sweet compound, plus buffer alone. All concentration–receptor combinations were measured in duplicate, and each experiment was repeated at least 4 times (8 wells/concentration). Results were expressed for each concentration as ΔF/F mean ± SEM and represented as dose–response curves.

R1 = Variant EC50/WT EC50: 1.7 | Max ΔF/F0: 0.20 ± 0.01 | EC50 (read-out: EC50): 1060 ± 648 µM
Molecule: CC1=CC(=O)NS(=O)(=O)O1 [Acesulfame K, acesulfame K]

Molecule: O=S(=O)(O)NC1CCCCC1 [Cyclamate, cyclamate]
EC50 (read-out: EC50): 2620 ± 98 µM

Molecule: C[C@H](CC[C@@H](O[C@@H]1O[C@H](CO[C@@H]2O[C@H](CO)[C@@H](O)[C@H](O)[C@H]2O)[C@@H](O)[C@H](O)[C@H]1O[C@@H]1O[C@H](CO)[C@@H](O)[C@H](O)[C@H]1O)C(C)(C)O)[C@H]1CC[C@@]2(C)[C@@H]3CC=C4[C@@H](CC[C@H](O[C@@H]5O[C@H](CO[C@@H]6O[C@H](CO)[C@@H](O)[C@H](O)[C@H]6O)[C@@H](O)[C@H](O)[C@H]5O)C4(C)C)[C@]3(C)[C@H](O)C[C@]12C [Mogroside V, mogroside V]
R1 = Variant EC50/WT EC50: 3.0 | Max ΔF/F0: 0.43 ± 0.02 | EC50 (read-out: EC50): 94.5 ± 8.4 µM

R1 = Variant EC50/WT EC50: 4.0 | Max ΔF/F0: 0.48 ± 0.02 | EC50 (read-out: EC50): 203 ± 17.1 µM
Molecule: COc1ccc(CCC(=O)c2c(O)cc(O[C@@H]3O[C@H](CO)[C@@H](O)[C@H](O)[C@H]3O[C@@H]3O[C@@H](C)[C@H](O)[C@@H](O)[C@H]3O)cc2O)cc1O [NHDC, neohesperidin dihydrochalcone]

R1 = Variant EC50/WT EC50: 2.2 | Max ΔF/F0: 0.19 ± 0.01 | EC50 (read-out: EC50): 2.7 ± 0.29 µM
Molecule: COC(=O)[C@H](Cc1ccccc1)NC(=O)[C@H](CC(=O)O)NCCC(C)(C)C [Neotame]

R1 = Variant EC50/WT EC50: 3.0 | Max ΔF/F0: 1.31 ± 0.21 | EC50 (read-out: EC50): 41.1 ± 19.4 µM
Molecule: C=C(C)[C@@H]1CC=C(/C=N/O)CC1 [Perillartine, perillartine]

R1 = Variant EC50/WT EC50: 2.6 | Max ΔF/F0: 0.38 ± 0.04 | EC50 (read-out: EC50): 103 ± 18 µM
Molecule: C=C1C[C@@]23CC[C@H]4[C@@](C)(CCC[C@@]4(C)C(=O)O[C@@H]4O[C@H](CO)[C@@H](O)[C@H](O[C@@H]5O[C@H](CO)[C@@H](O)[C@H](O)[C@H]5O)[C@H]4O[C@@H]4O[C@H](CO)[C@@H](O)[C@H](O)[C@H]4O)[C@@H]2CC[C@]1(O[C@@H]1O[C@H](CO)[C@@H](O)[C@H](O[C@@H]2O[C@H](CO)[C@@H](O)[C@H](O)[C@H]2O)[C@H]1O[C@@H]1O[C@H](CO)[C@@H](O)[C@H](O)[C@H]1O)C3 [Rebaudioside M, rebaudioside M]

R1 = Variant EC50/WT EC50: 2.6 | Max ΔF/F0: 0.11 ± 0.02 | EC50 (read-out: EC50): 282 ± 101 µM
Molecule: OC[C@H]1O[C@H](O[C@]2(CCl)O[C@H](CCl)[C@@H](O)[C@@H]2O)[C@H](O)[C@@H](O)[C@H]1Cl [Sucralose]

R1 = Variant EC50/WT EC50: 2.0 | EC50 (brazzein): 221.5 ± 11.3 µg/mL | Max ΔF/F0: 0.68 ± 0.01
Molecule: brazzein (QDKCKKVYENYPVSKCQLANQCNYDCKLDKHARSGECFYDEKRNLQCICDYCEY; ends and bridges not checked; cysteine pairing not given here; UniProt P56552 1-54, looked up) [sweet-tasting protein obtained by recombinant production using the yeast Pichia pastoris]

R1 = Variant EC50/WT EC50: 1.6 | Max ΔF/F0: 0.38 ± 0.01
Molecule: thaumatin

EC50 (read-out: EC50): 16.3 ± 0.9 µM
B1: thaumatin (protein)
chain: ATFEIVNRCSYTVWAAASKGDAALDAGGRQLNSGESWTINVEPGTKGGKIWARTDCYFDDSGSGICKTGDCGGLLRCKRFGRPPTTLAEFSLNQYGKDYIDISNIKGFNVPMDFSPTTRGCRGVRCAADIVGQCPAKLKAPGGGCNDACTVFQTSEYCCTTGKCGPTEYSRFFKRLCPDAFSYVLDKPTTVTCPGSSNYRVTFCPTA
modifications: Eight disulfides
notes: sweet-tasting plant protein, E957
